According to paper PMC7827014, “Synthetic Transition from Thiourea-Based Compounds to Tetrazole Derivatives: Structure and Biological Evaluation of Synthesized New N-(Furan-2-ylmethyl)-1H-tetrazol-5-amine Derivatives” (Molecules, 2021):
Values after ≈ are worked out from the molar mass of the structure shown. Where two headings read alike, the source gives them in different places.

What was measured:
E. hirae ATCC 10541 = test: MIC microdilution, standard strain; assay type: cell-based
M. tuberculosis H37Rv = test: In vitro antitubercular MIC; assay type: cell-based; details: Mycobacterium tuberculosis, read-out: Minimal inhibitory concentration
HaCaT = test: MTT assay 72 h; assay type: cell-based, human; details: Homo sapiens; HaCaT normal cells, MTT 72 h, mean ± SD; read-out: IC50
Protocol: (§1) The cell viability was assessed by using an enzymatic conversion of 3-(4,5-dimethylthiazol-2-yl)-2,5-diphenyltetrazolium bromide salt (MTT) to insoluble formazan crystals by mitochondrial dehydrogenases, occurring in living cells. Cells were cultured in 96-well plates at a density of l × 10^4 cells per well, and cultured to adhere for 24 h at 37 °C in a CO2 incubator. After 24 h of incubation, culture medium was replaced with a fresh medium, then cells were treated with various concentrations of the compounds and incubated for 72 h at 37 °C in a CO2 incubator. Untreated cells were used as the control. Subsequently, MTT solution (0,5 mg/mL in free-serum medium) was added, and samples were incubated for 4 h at 37 °C in a CO2 incubator. Then, the medium was aspirated, and formed formazan crystals were solubilized by adding an isopropanol-DMSO mixture (1:1 vol). The intensity of the dissolved crystals was measured using a UVM 340 reader (ASYS Hitech GmbH, Austria), at a wavelength of 570 nm. Cell viability was presented as a percent of MTT reduced in treated cells versus control cells (incubated without tested compounds). The relative MTT level (%) was calculated as [A]/[B]×100, where [A] is the absorbance of the test sample, and [B] is the absorbance of the control sample containing the untreated cells. The IC50 value was estimated using CalcuSyn version 1.0. […]
(§2) Antiproliferative activity of tested compounds. Data are given as IC50 [µM] and SI.
(§3) Human immortal keratinocyte cell line from adult human skin (HaCaT), Human colorectal adenocarcinoma (CaCo-2), Human epithelial lung carcinoma cell line (A549) and Human melanoma cell line (HTB-140). Data are expressed as mean ± SD. The SI (Selectivity Index) was calculated for each compound using formula: SI = IC50 for normal cel line / IC50 cancer cel line.

HTB-140 = test: MTT assay 72 h; assay type: cell-based, human; details: Homo sapiens; HTB-140, MTT 72 h, mean ± SD
Protocol: as §1, §2, §3

A549 = test: MTT assay 72 h; assay type: cell-based, human; details: Homo sapiens; A549, MTT 72 h, mean ± SD; read-out: IC50
Protocol: as §1, §2, §3

S. aureus NCTC 4163 = test: MIC microdilution, standard strain; assay type: cell-based; details: Staphylococcus aureus
E. coli NCTC 8196 = test: MIC microdilution, standard strain; assay type: cell-based; details: E. coli NCTC 8196, 18 h, 35 °C
[1] = tested on: M. tuberculosis INH susceptible (Spec. 192); test: In vitro antitubercular MIC; assay type: cell-based; details: Mycobacterium tuberculosis, read-out: Minimal inhibitory concentration
E. coli ATCC 25922 = test: MIC microdilution, standard strain; assay type: cell-based; details: E. coli ATCC 25922, 18 h, 35 °C
[2] = tested on: S. epidermidis ATCC 12228; test: MIC microdilution, standard strain; assay type: cell-based
Caco-2 = test: MTT assay 72 h; assay type: cell-based; details: Homo sapiens; Caco-2, MTT 72 h, mean ± SD; read-out: IC50
Protocol: as §1, §2, §3

S. aureus ATCC 29213 = test: MIC microdilution, standard strain; assay type: cell-based; details: Staphylococcus aureus
P. aeruginosa ATCC 15442 = test: MIC microdilution, standard strain; assay type: cell-based; details: Pseudomonas aeruginosa, ATCC15442, 18 h
[3] = NCTC4163, S. aureus NCTC 4163, 18 h, 35 °C, read-out: MIC
[4] = Escherichia coli, NCTC8196, read-out: MIC
[5] = Escherichia coli, ATCC25922, read-out: MIC
[6] = ATCC29213, S. aureus ATCC 29213, 18 h, 35 °C, read-out: MIC
[7] = Staphylococcus epidermidis, ATCC12228, S. epidermidis ATCC 12228, 18 h, 35 °C, read-out: MIC
[8] = Enterococcus hirae, ATCC10541, E. hirae ATCC 10541, 18 h, 35 °C, read-out: MIC

| Structure (SMILES) | MIC (M. tuberculosis H37Rv) [µg/mL] | IC50 (HaCaT) [µM] | IC50 (HTB-140) [µM] | IC50 (A549) [µM] | MIC (S. aureus NCTC 4163; [3]) [µg/mL] | MIC (E. coli NCTC 8196; [4]) [µg/mL] | MIC [1] [µg/mL] | MIC (E. coli ATCC 25922; [5]) [µg/mL] | IC50 (Caco-2) [µM] | MIC (S. aureus ATCC 29213; [6]) [µg/mL] | MIC [2, 7] [µg/mL] | MIC (E. hirae ATCC 10541; [8]) [µg/mL] | further results |
| --- | --- | --- | --- | --- | --- | --- | --- | --- | --- | --- | --- | --- | --- |
| O=C(O)c1cn(C2CC2)c2cc(N3CCNCC3)c(F)cc2c1=O [Ciprofloxacin, reference compound] |  |  |  |  |  |  |  |  |  |  |  |  | MIC (E. hirae ATCC 10541; Enterococcus hirae, ATCC10541, 18 h): 2 µg/mL (≈ 6.04 µM) |
| Fc1ccc(-n2nnnc2NCc2ccco2)cc1 [Compound 1, 1-(4-fluorophenyl)-N-(furan-2-ylmethyl)-1H-tetrazol-5-amine] | 256 (≈ 987 µM) | > 100 | > 100 | > 100 | 64 (≈ 247 µM) | 128 (≈ 494 µM) | 256 (≈ 987 µM) | 128 (≈ 494 µM) | > 100 | 64 (≈ 247 µM) |  |  | MIC ([2]; Staphylococcus epidermidis, ATCC12228, 18 h): 256 µg/mL (≈ 987 µM) |
| Cc1ccc(Cl)cc1-n1nnnc1NCc1ccco1 [Compound 2, 1-(5-chloro-2-methylphenyl)-N-(furan-2-ylmethyl)-1H-tetrazol-5-amine] | > 512 | > 100 | > 100 | > 100 | 64 (≈ 221 µM) | 128 (≈ 442 µM) | > 512 | 128 (≈ 442 µM) | > 100 | 64 (≈ 221 µM) | 256 (≈ 884 µM) | 64 (≈ 221 µM) |  |
| Ic1ccc(-n2nnnc2NCc2ccco2)cc1 [Compound 3, N-(furan-2-ylmethyl)-1-(4-iodophenyl)-1H-tetrazol-5-amine] | > 512 | > 100 | > 100 | > 100 | 64 (≈ 174 µM) | 128 (≈ 349 µM) | > 512 | 128 (≈ 349 µM) | > 100 | 64 (≈ 174 µM) | 128 (≈ 349 µM) | 128 (≈ 349 µM) | MIC (P. aeruginosa ATCC 15442): 512 µg/mL (≈ 1390 µM) |
| Clc1cccc(-n2nnnc2NCc2ccco2)c1 [Compound 4, 1-(3-chlorophenyl)-N-(furan-2-ylmethyl)-1H-tetrazol-5-amine] | > 512 | > 100 | > 100 | > 100 |  | 512 (≈ 1860 µM) | 512 (≈ 1860 µM) |  | > 100 |  | 512 (≈ 1860 µM) | 512 (≈ 1860 µM) | MIC (S. aureus NCTC 4163; NCTC4163, 18 h): 256 µg/mL (≈ 929 µM); MIC (E. coli ATCC 25922): >; MIC (S. aureus ATCC 29213; ATCC29213, 18 h): 256 µg/mL (≈ 929 µM) |
| Clc1ccc(-n2nnnc2NCc2ccco2)cc1Cl [Compound 5, 1-(3,4-dichlorophenyl)-N-(furan-2-ylmethyl)-1H-tetrazol-5-amine] | > 512 | > 100 | > 100 | > 100 |  |  | > 512 |  | > 100 |  |  |  |  |
| Brc1cccc(-n2nnnc2NCc2ccco2)c1 [Compound 7, 1-(3-bromophenyl)-N-(furan-2-ylmethyl)-1H-tetrazol-5-amine] | 512 (≈ 1600 µM) | > 100 | > 100 | > 100 |  |  | 512 (≈ 1600 µM) |  | > 100 |  |  |  |  |
| Clc1ccc(-n2nnnc2NCc2ccco2)cc1 [Compound 8, 1-(4-chlorophenyl)-N-(furan-2-ylmethyl)-1H-tetrazol-5-amine] | 256 (≈ 929 µM) | > 100 | > 100 | > 100 | 128 (≈ 464 µM) |  | 512 (≈ 1860 µM) |  | > 100 | 128 (≈ 464 µM) |  |  | MIC (E. coli NCTC 8196): >; MIC (E. coli ATCC 25922): >; MIC ([2]; S. epidermidis ATCC 12228, 18 h, 35 °C): >; MIC (E. hirae ATCC 10541; E. hirae ATCC 10541, 18 h, 35 °C): > |
